These results are taken from ChEMBL document CHEMBL1130443, “Enhanced DNA photocleavage and binding properties of sapphyrin-polyamine conjugates” (Bioorg Med Chem Lett, 1997).

Type in all cases: nucleic-acid assay
Test [1] has as its system Nucleic Acid. Description: The C50 value refers to the concentration of compound required to displace 50% of the ethidium bromide from the DNA. As to conditions: Bos taurus.
Test [2] relates to Nucleic Acid. Put plainly: Compound was measured for the inhibition of DNA cleavage against […] plasmid in the presence of 2M NaCl.
The test system of test [3] is Nucleic Acid. Description: Compound was measured for the inhibition of DNA cleavage against […] plasmid in the presence of 0.2 M sodium dodecyl sulfate (SDS).
Test [4] has as its system Nucleic Acid. Description: Compound was measured for the inhibition of DNA cleavage against […] plasmid in the presence of 0.2 M sodium dodecyl sulfate(SDS).

With `CCc1c(CC)c2cc3nc(cc4[nH]c(c(C)c4CC)c4[nH]c(cc5nc(cc1[nH]2)C(CCC(=O)N(CCO)CCO)=C5C)c(CC)c4C)C(C)=C3CCC(=O)N(CCO)CCO`, the C50 in the test on Nucleic Acid [1] turned out to be 1.2 µM. The inhibition – broadly, how much of the control response was suppressed – came to 92% in the test with Nucleic Acid [2] and 100% in the test on Nucleic Acid [3].

In the test with Nucleic Acid [1], `CCc1c(CC)c2cc3nc(cc4[nH]c(c(C)c4CC)c4[nH]c(cc5nc(cc1[nH]2)C(CCC(=O)NCCNCCN)=C5C)c(CC)c4C)C(C)=C3CCC(=O)NCCNCCN` yielded a C50 of 0.127 µM. Besides, the inhibition in the test on Nucleic Acid [2] was determined as 87%; in the test on Nucleic Acid [4], 47%.

For `NCCN(CCN)CCN`, the C50 in the test on Nucleic Acid [1] was found to be 28 µM.

In turn, `CCc1c(CC)c2cc3nc(cc4[nH]c(c(C)c4CC)c4[nH]c(cc5nc(cc1[nH]2)C(CCC(=O)NCCN(CCN)CCN)=C5C)c(CC)c4C)C(C)=C3CCC(=O)NCCN(CCN)CCN` displayed a C50 with Nucleic Acid [1] of 0.114 µM. Also, the inhibition is 93% in the test on Nucleic Acid [2] and 41% in the test on Nucleic Acid [4].

In the test with Nucleic Acid [1], `CCC1=C(CC)c2cc3[nH]c(cc4[nH]c(c(C)c4CC)c4[nH]c(cc5nc(cc1n2)C(CCC(=O)NCCOCCOCCN)=C5C)c(CC)c4C)c(C)c3CCC(=O)NCCOCCOCCN` yielded a C50 of 0.062 µM. Besides, the inhibition in the test on Nucleic Acid [2] was 66%; with Nucleic Acid [4], 31%.
